Patent US20240400998A1, “BLASTOCYST-LIKE CELL AGGREGATE AND METHODS” (IMBA - INSTITUT FÜR MOLEKULARE BIOTECHNOLOGIE GMBH, priority 2021, published 2024)
“Also recorded” adds a separate entry of the source.

Assays:
Assay type in all cases: cell-based, human
[1] = test system: Open Face Endometrial Layer (OFEL); test: In vitro implantation assay: attachment of blastoids or trophospheres onto OFELs; conditions: for potential of endometrial cells to interact with human blastoids: EPC stimulation combined with the Wnt inhibitor
Method: (§1) Endometrial organoids were passaged as described in the previous section. The dissociated cells were resuspended in Matrigel supplemented with Y-27632 (10 μM), cell suspension was deposited in 48-well plates and were cultured in endometrial expansion medium for 2 days. The organoids were stimulated first with E2 (10 nM, Sigma-Aldrich, E2758) for 2 days, followed by the mixture of E2 (10 nM), P4 (1 μM, Sigma-Aldrich, P8783), and CAMP (250 μM, Biolog, B 007) with or without XAV939 (10 µM) (EPC or EPCX respectively) for 4 days. For OFELs culture, organoids were recovered from the matrigel droplets with ice-cold DMEM/F12 and mechanical pipetting. The organoids were dissociated using TrypLE and mechanically triturated to generate single cells and seeded at the density of 3 to 3.5×10^4 cells per well into a 96-well glass bottom plate (Cellvis, P96-1.5H-N) and cultured for 2-3 days with stimulation. For contraceptive treatment, levonorgestrel (LNG) (10 μM, Sigma-Aldrich, PHR1850) was added every day to the medium two days after hormonal stimulation and continued until the end of experiment.
Confluent OFELs were prepared for the implantation assay at least 2 hours prior to the deposition of blastoids, trophospheres, naive hPSCs or hTSCs aggregates by washing the OFEL two times with DMEM/F12 and adding IVC medium (Xiang, L. et al. Nature 577, 537-542 (2020)). Structures were then transferred onto the OFELs using a mouth pipette under an inverted microscope. After 24-48 hours, the medium was removed, the well was washed with PBS, fixed using 4% formaldehyde for 30 minutes at room temperature and subsequently processed for immunofluorescence staining. The percentage of attached structures was reported as the percentage of total transferred structures.

naive hPSC aggregates = test: Induction of blastoids and trophospheres from naive hPSC aggregates in microwell arrays (yield counted by morphology); conditions: for effect on blastoid formation / yield of blastoids: naive hPSC aggregates in PALY medium complemented with the molecule every day, 0 to 96 hours; for morphology of hPSC aggregates upon stimulation: stimulation of hPSC aggregates with LPA or NAEPA; for formation of blastoids versus trophospheres: 3 μM SC144 in PALLY medium for 4 days (0 to 96 hours)
Method: Naive hPSCs or primed hPSCs cultures were treated with Accutase (Biozym, B423201) at 37° C. for 5 min, followed by gentle mechanical dissociation with a pipette. After centrifugation, the cell pellet was resuspended in PXGL medium, supplemented with Y-27632 (10 μM, MedChemExpress, HY-10583). To exclude MEF, the cell suspension was transferred onto gelatin coated plates and incubated at 37° C. for 70 min. After MEF exclusion, the cell number was determined using a Countess™ automated cell counter (Thermo Fisher Scientific) and Trypan Blue staining to assess cell viability. The cells were then resuspended in N2B27 media containing 10 μM Y-27632 (aggregation medium) and 3.0×10^4 cells were seeded onto a microwell array included into a well of a 96-well plate. The cells were allowed to form aggregates inside the microwell for a period ranging from 0 to 24 hours depending on the cell lines and based on their propensity for aggregation. Subsequently, the aggregation medium was replaced with PALLY medium-N2B27 supplemented with PD0325901 (1 μM), A 83-01 (1 μM, MedChemExpress, HY-10432), hLIF (10 ng/ml), 1-Oleoyl lysophosphatidic acid sodium salt (LPA) (500 nM, Tocris, 3854) and Y27632 (10 μM). The PALLY medium was refreshed every 24 hours. After 48 hours, the PALLY medium was replaced with N2B27 medium containing 500 nM LPA and 10 μM Y-27632. At 96 hours, a blastoid is defined based on morphological similarity to B6 staged human blastocyst, as a structure composed of a monolayered cyst with an overall diameter of 150-250 μm comprising one inner cell cluster. We also verified that, beyond the morphology, blastoids form analogs of the three blastocyst cell lineages in the sequential and timely manner of blastocyst development. […] The effect of LPA, NAEPA (Sigma-Aldrich, N0912) and Verteporfin (Selleck Chemicals Llc, S1786) on the yield of blastoid formation was assessed by culturing naive hPSC aggregates in PALY medium complemented with molecules added every day from 0 to 96 hours. The Verteporfin treatment was executed without exposure to the light. The effect of the aPKC inhibitor CRT0103390 (Gift from the laboratory of Kathy Niakan) was assessed by culturing naive hPSC aggregates in PALLY medium complemented with 2 μM CRT0103390 every day from 0 to 96 hours. The formation of trophospheres was induced by culturing naive hPSC aggregates in PALLY medium complemented with 2 μM XMU-MP-1 (Med Chem Express, HY-100526) or 3 μM SC-144 (Axon, 2324) every day from 0 to 96 hours. The BSA concentration was titrated within the range of 0-0.3% for individual cell lines used for the formation of the blastoids and trophospheres.
The phase contrast images were acquired using Thermo Fisher scientific EVOS cell imaging system and inverted wide field microscope Axio VertA1. The number of blastoids or cavitated structures were counted manually for each well. After 96 hours, a blastoid is defined based on the morphological parameters as described in previous sections. The fluorescent images and timelapse images were acquired using Olympus IX83 microscope with Yokogawa W1 spinning disk (Software: CellSense 2.3; camera: Hamamatsu Orca Flash 4.0) or Nikon Eclipse Ti E inverted microscope, equipped with a Yokogawa W1 spinning disc (Software: Visiview 4.5.0.7; camera: Andor Ixon Ultra 888 EMCCD). The confocal images were analyzed and display images were exported using FIJI 1.53k or Bitplane Imaris 9.7.0 softwares. For cell counting, Bitplane Imaris software was used. Cell count parameters were set for size and fluorescence strength of voxels and then overall cell count data was obtained for each image using Imaris's spot function. Note that large cavities in blastoids increase the depth of the imaging field causing poor signal from deeply located cells. Therefore, our counting data in FIG. 8H could be underrepresented values, particularly in the case of trophectoderm cells. The quantification of the percentage of blastoids forming the NR2F2 axis was done manually. […]

[2] = test system: endometrial cells (open-faced endometrial layer, OFEL); test: qRT-PCR of window-of-implantation markers in endometrial cells (OFELs); conditions: for expression of the gene PAEP (marker of the WOI): endometrial cells, Wnt inhibition
Method: as §1
RNA was extracted using the RNeasy mini kit (Qiagen, 74106) and cDNA synthesis was performed using the Superscript III (Invitrogen, 18080093) enzyme. qPCR reactions were performed using GoTaq® qPCR Master Mix (Promega, A6001) on CFX384 Touch Real-Time PCR Detection System (Bio-rad). Quantification was performed using Microsoft Office Excel by applying the comparative Cycle threshold (Ct) method. Relative expression levels were normalized to GAPDH.

## Cc1ccc(/C=N/NC(=O)c2ccccc2Oc2ccccc2)o1 [PNU-74654]
[1]
  potential of endometrial cells to interact with human blastoids: increases the potential of endometrial cells to interact with human blastoids

## N-[2-(phosphonooxy)ethyl]-9Z-octadecenamide [NAEPA]
Naive hPSC aggregates
  effect on blastoid formation / yield of blastoids: increases; also recorded: enhanced blastoid formation
  morphology of hPSC aggregates upon stimulation: leads to the transition from a solid aggregate of cells to a cystic structure including a single fluid-filled cavity

## Oc1nc(-c2ccc(C(F)(F)F)cc2)nc2c1CSCC2 [XAV939]
[1]
  potential of endometrial cells to interact with human blastoids: increases the potential of endometrial cells to interact with human blastoids
[2]; endometrial cells cultured with XAV939
  expression of PAEP, SPP1, LIF and DPP4 (RTqPCR): increases the expression of PAEP, SPP1, LIF and DPP4
[2]
  expression of the gene PAEP (marker of the WOI): increase the expression of the gene PAEP

## 1-Oleoyl lysophosphatidic acid sodium salt [LPA]
Naive hPSC aggregates; sodium salt
  effect on blastoid formation / yield of blastoids: increases; also recorded: significantly improved efficiency; also recorded: enhanced blastoid formation
Naive hPSC aggregates
  morphology of hPSC aggregates upon stimulation: leads to the transition from a solid aggregate of cells to a cystic structure including a single fluid-filled cavity

## LIF: leukemia inhibitory factor, STAT3 agonist
Naive hPSC aggregates; dose dependent effect of LIF
  blastoid formation efficiency versus LIF concentration: blastoid formation efficiency increased with LIF concentration

## Cc1ccc2nc(NC(=O)CSc3nc4c(c(=O)n3-c3ccccc3)SCC4)sc2c1 [IWP-2]
[1]
  potential of endometrial cells to interact with human blastoids: increases the potential of endometrial cells to interact with human blastoids

## CN1C(=O)c2sccc2N(C)c2nc(Nc3ccc(S(N)(=O)=O)cc3)ncc21 [XMU-MP-1]
[1]; trophospheres formed using 2 μM XMU-MP-1
  attachment of trophospheres to stimulated endometrial cells (OFELs): fail to attach and invade stimulated endometrial cells; also recorded: largely fail to attach and to invade the endometrial layer; also recorded: failed to attach to OFELs
Naive hPSC aggregates; 2 μM XMU-MP-1 in PALLY medium for 4 days (0 to 96 hours)
  formation of trophospheres: results in the formation of trophospheres; also recorded: induces the formation of trophospheres with limited or no epiblast-like cells and hypoblast-like cells; also recorded: yielded trophospheres

## O=C(NNc1nc2cc(F)ccc2n2cccc12)c1cnccn1 [SC144]
[1]; trophospheres formed using 3 μM SC144
  attachment of trophospheres to stimulated endometrial cells (OFELs): fail to attach and invade stimulated endometrial cells; also recorded: largely fail to attach and to invade the endometrial layer; also recorded: failed to attach to OFELs
Naive hPSC aggregates
  formation of blastoids versus trophospheres: a decrease in the formation of blastoids and an increase in the formation of trophospheres; also recorded: induces the formation of trophospheres with limited or no epiblast-like cells and hypoblast-like cells; also recorded: yielded trophospheres
Naive hPSC aggregates; listed as SC-144
  formation of blastoids versus trophospheres: induced the formation of mono-layer cavitated aggregate that does not form an inner cluster of Epi-/Hypo-like cells
Naive hPSC aggregates; SC-144 treatment
  maturation of lineage specification of outer trophectoderm cells: compromised

## Cn1ncnc2c(=O)n(C)c(=O)nc1-2 [PKF118-310]
[2]
  expression of the gene PAEP (marker of the WOI): increase the expression of the gene PAEP

## Verteporfin
Naive hPSC aggregates; aggregate of hPSCs treated with Verteporfin, 1 μM
  formation of a cavity: totally prevents the formation of a cavity
Naive hPSC aggregates
  effect on blastoid formation / yield of blastoids: decreases; also recorded: prevented blastoid formation

## NC(=O)c1ccc(-c2nc(-c3ccc4c(c3)OCO4)c(-c3ccccn3)[nH]2)cc1 [SB431542]
Naive hPSC aggregates; 1 μM SB431542 for 4 days in combination with PLLY
  blastoid formation with alternative TGF-b inhibitor: also work
